Patent publication US10905683B2, “Compositions and uses of amidine derivatives” (BIOCRYST PHARMACEUTICALS, INC., priority 2014, dated 2021)
Like-named read-outs stand apart in the source and are kept apart here.

Assays:
[1] = Concentration achieved in formulations and excipient mixtures; type: physicochemical
Description: In initial formulation work for the amidine compounds described herein, in particular 3-[2-(4-carbamimidoyl-phenylcarbamoyl)-5-methoxy-4-vinyl-phenyl]-6-(cyclopropylmethyl-carbamoyl)-pyridine-2-carboxylic acid, extensive studies were carried out to identify a suitable mixture of excipients to produce the oral formulation described herein.
Specifically, a variety of approaches were taken to develop suitable oral formulations of 3-[2-(4-carbamimidoyl-phenylcarbamyl)-5-methoxy-4-vinyl-phenyl]-6-(cyclopropylmethyl-carbamoyl)-pyridine-2-carboxylic acid. The approaches taken included use of a variety of hydrophilic polymers, including α-cyclodextrin and a polyanionic 3-cyclodextrin derivative with a sodium sulfonate salt separated from the lipophilic cavity by a butyl ether or sulfobutylether spacer group in combination with a variety of co-solvents. In addition, the compound was evaluated in formulations created by a number of different technologies (such as dry blends, nanosuspensions, solid dispersion and emulsions) using a variety of approaches.

[2] = Phase 1 Part 2, multiple ascending dose pharmacokinetics (7 days, q8h); type: in vivo, human; settings: for Cmax / AUC(0-t) / Tmax / AUC / half-life / concentration at 8 h: human, plasma, oral; for AUC(0-t): read-out: AUC0-8; for concentration at 8 h: read-out: Ctau
Description: Part 2 of the study evaluated the safety, tolerability, PK, and PD of multiple ascending doses of the compound of Example 1. Twelve subjects were administered a 7-day course of the compound of Example 1 (n=10 subjects/cohort received the API and n=2 subjects/cohort received matching placebo) according to the following dose regimens: 100 mg of the compound of Example 1 or placebo every 8 hours (q8h) in Cohort 1; 200 mg of the compound of Example 1 or placebo q8h in Cohort 2; 400 mg of the compound of Example 1 or placebo q8h in Cohort 3 and 800 mg of the compound of Example 1 or placebo q8h in Cohort 4.
A total of 48 subjects were enrolled in Part 2 of the Study and 47 subjects completed the study. A summary of pharmacokinetic parameters for the compound of Example 1 for the first dose on Day 1 and last dose on Day 7 is presented in Table 17. […] Day 7 geometric mean exposure (AUCtau and Cmax) did increase with increasing dose. Drug exposure was dose proportional through 400 mg three times a day. At 400 mg three times a day, pre-dose geometric mean drug levels and coefficient of variation (CV) on day 7 were 28.6 ng/ml and 77% and post-dose geometric mean maximum drug levels and CV were 152 ng/ml and 57%. Plasma concentrations of the compound of Example 1 over 25 ng/ml are expected to be efficacious in treating conditions such as, but not limited to, HAE and AAE.

[3] = Solubility in organic solvents; type: physicochemical
Description: The solubility of the compound of Example 1 in a range of organic solvents was measured. Solubility assays were performed by the sequential addition of the compound of Example 1 to an appropriate organic solvent while stirring vigorously until a precipitate is formed. The resulting suspension is then shaken for 24 hours at room temperature, filtered and the resulting solution was analyzed by appropriate analytical method. Quantitation was performed by comparison of the concentrations of the resulting solution of the compound of Example 1 to a single point calibration curve using a solution of the reference standard.

[4] = Stability and photostability of formulations
Description: This is a standard practice in the pharmaceutical industry in order to accelerate any chemical reactions that may occur due to environmental conditions (temperature, oxygen, light). […] If the stability data from the stress studies indicates a potential stability challenge, then further studies are required to identify the stability issue and resolve it.
Initial stability studies were conducted under accelerated conditions. […] Several antioxidants were identified for study. These antioxidants are pharmaceutically acceptable for use in human oral dosage forms and are compatible with the gelatin composition in a soft gelatin capsule.
Stability studies were performed with formulations that were protected from light and formulations exposed to light.

[5] = 400 mg three times a day, day 7
[6] = 100 mg, Day 1, 100 mg q 8 h, GM
[7] = 100 mg, Day 1, 100 mg q 8 h, Median
[8] = 100 mg, Day 7, 100 mg q 8 h, GM
[9] = 100 mg, Day 7, 100 mg q 8 h, Median
[10] = 200 mg, Day 1, 200 mg q 8 h, GM
[11] = 200 mg, Day 1, 200 mg q 8 h, Median
[12] = 200 mg, Day 7, 200 mg q 8 h, GM
[13] = 200 mg, Day 7, 200 mg q 8 h, Median
[14] = 400 mg, Day 1, 400 mg q 8 h, GM
[15] = 400 mg, Day 1, 400 mg q 8 h, Median
[16] = 400 mg, Day 7, 400 mg q 8 h, GM
[17] = 400 mg, Day 7, 400 mg q 8 h, Median
[18] = 800 mg, Day 1, 800 mg q 8 h, GM
[19] = 800 mg, Day 1, 800 mg q 8 h, Median
[20] = 800 mg, Day 7, 800 mg q 8 h, GM
[21] = 800 mg, Day 7, 800 mg q 8 h, Median

C=Cc1cc(C(=O)Nc2ccc(C(=N)N)cc2)c(-c2ccc(C(=O)NCC3CC3)nc2C(=O)O)cc1OC [Example 1, 3-[2-(4-carbamimidoyl-phenylcarbamoyl)-5-methoxy-4-vinyl-phenyl]-6-(cyclopropylmethyl-carbamoyl)-pyridine-2-carboxylic acid]
concentration dissolved ([1]; 1,2-propanediol, especially as part of a mixture of polar protic solvents): up to 140 mg/ml | concentration in formulation ([1]; initial formulations: cyclodextrins, co-solvents, dry blends, nanosuspensions, solid dispersion, emulsions): less than 10.5 mg/ml | concentration in formulation ([1]; novel excipient mixtures of the invention): at least 100 mg/ml | concentration dissolved ([1]; polyethylene glycol 600, especially as part of a mixture of polar protic solvents): up to 140 mg/ml | post-dose geometric mean maximum drug level [2, 5]: 152 ng/mL | pre-dose geometric mean drug level [2, 5]: 28.6 ng/mL | accumulation in Cmax and AUC after repeated dosing compared to first day ([2]; 7 days q8h): approximately 30% | Ctau ([2]; Day 7, 100 mg q 8 h, GM): 8.34 ng/mL | DN AUCtau ([2]; Day 7, 100 mg q 8 h, GM): 2.37 ng·h/mL/mg | Ctau ([2]; Day 7, 100 mg q 8 h, Median): 7.92 ng/mL | DN AUCtau ([2]; Day 7, 200 mg q 8 h, GM): 1.58 ng·h/mL/mg | DN AUCtau ([2]; Day 7, 400 mg q 8 h, GM): 1.34 ng·h/mL/mg | Ctau ([2]; Day 7, 800 mg q 8 h, GM): 23.7 ng/mL | DN AUCtau ([2]; Day 7, 800 mg q 8 h, GM): 0.847 ng·h/mL/mg | Ctau ([2]; Day 7, 800 mg q 8 h, Median): 30.3 ng/mL | time of maximal concentrations postdose ([2]; across dosing days and cohorts): approximately 2 hours | Cmax [2, 6]: 54.5 ng/mL | AUC(0-t) [2, 6]: 173 ng·h/mL | Cmax [2, 7]: 49.4 ng/mL | Tmax [2, 7]: 1 h | AUC(0-t) [2, 7]: 185 ng·h/mL | AUC [2, 8]: 237 ng·h/mL | Cmax [2, 8]: 72.6 ng/mL | half-life ([2]; 100 mg, Day 7, 100 mg q 8 h, GM, read-out: t1/2 (converted)): 12.4 h | AUC [2, 9]: 246 ng·h/mL | Cmax [2, 9]: 71.2 ng/mL | Tmax [2, 9]: 2 h | half-life ([2]; 100 mg, Day 7, 100 mg q 8 h, Median, read-out: t1/2 (converted)): 11.5 h | Cmax [2, 10]: 72 ng/mL | AUC(0-t) [2, 10]: 236 ng·h/mL | Cmax [2, 11]: 89.7 ng/mL | Tmax [2, 11]: 2 h | AUC(0-t) [2, 11]: 251 ng·h/mL | AUC [2, 12]: 316 ng·h/mL | Cmax [2, 12]: 83.6 ng/mL | concentration at 8 h [2, 12]: 12.9 ng/mL | half-life ([2]; 200 mg, Day 7, 200 mg q 8 h, GM, read-out: t1/2 (converted)): 12.6 h | AUC [2, 13]: 385 ng·h/mL | Cmax [2, 13]: 92.3 ng/mL | Tmax [2, 13]: 2 h | concentration at 8 h [2, 13]: 13 ng/mL | half-life ([2]; 200 mg, Day 7, 200 mg q 8 h, Median, read-out: t1/2 (converted)): 13.5 h | Cmax [2, 14]: 119 ng/mL | AUC(0-t) [2, 14]: 421 ng·h/mL | Cmax [2, 15]: 124 ng/mL | Tmax [2, 15]: 2 h | AUC(0-t) [2, 15]: 395 ng·h/mL | AUC [2, 16]: 534 ng·h/mL | Cmax [2, 16]: 152 ng/mL | concentration at 8 h [2, 16]: 17.4 ng/mL | half-life ([2]; 400 mg, Day 7, 400 mg q 8 h, GM, read-out: t1/2 (converted)): 13 h | AUC [2, 17]: 463 ng·h/mL | Cmax [2, 17]: 129 ng/mL | Tmax [2, 17]: 2 h | concentration at 8 h [2, 17]: 14.6 ng/mL | half-life ([2]; 400 mg, Day 7, 400 mg q 8 h, Median, read-out: t1/2 (converted)): 12.7 h | Cmax [2, 18]: 143 ng/mL | AUC(0-t) [2, 18]: 504 ng·h/mL | Cmax [2, 19]: 153 ng/mL | Tmax [2, 19]: 2 h | AUC(0-t) [2, 19]: 581 ng·h/mL | AUC [2, 20]: 678 ng·h/mL | Cmax [2, 20]: 187 ng/mL | half-life ([2]; 800 mg, Day 7, 800 mg q 8 h, GM, read-out: t1/2 (converted)): 7.46 h | AUC [2, 21]: 835 ng·h/mL | Cmax [2, 21]: 240 ng/mL | Tmax [2, 21]: 2 h | half-life ([2]; 800 mg, Day 7, 800 mg q 8 h, Median, read-out: t1/2 (converted)): 8.03 h | half-life ([2]; calculated over a 24 hour period, read-out: terminal elimination half-life (converted)): ~10 h | Saturated concentration of Example 1 ([3]; Dimethyl acetamide, 40% solvent in water): 12.9 mg/mL | Saturated concentration of Example 1 ([3]; Dimethyl acetamide, 60% solvent in water): 24.8 mg/mL | Saturated concentration of Example 1 ([3]; Ethanol, 40% solvent in water): 5.9 mg/mL | Saturated concentration of Example 1 ([3]; Ethanol, 60% solvent in water): 21.8 mg/mL | Saturated concentration of Example 1 ([3]; Ethanol, 100%): 23.9 mg/mL | Saturated concentration of Example 1 ([3]; Glycerol, 100%): 5.5 mg/mL | Saturated concentration of Example 1 ([3]; N-Methyl-2-pyrrolidone, 100%, not saturated): >11 (not saturated) mg/mL | Saturated concentration of Example 1 ([3]; Polyethylene glycol 400, 40% solvent in water): 11.9 mg/mL | Saturated concentration of Example 1 ([3]; Polyethylene glycol 400, 60% solvent in water): 18.6 mg/mL | Saturated concentration of Example 1 ([3]; Polyethylene glycol 400, 100%): 21.2 mg/mL | Saturated concentration of Example 1 ([3]; Propylene glycol, 40% solvent in water): 2.67 mg/mL | Saturated concentration of Example 1 ([3]; Propylene glycol, 60% solvent in water): 27.9 mg/mL | Saturated concentration of Example 1 ([3]; Propylene glycol, 100%): >55 mg/mL | chemical stability under accelerated conditions ([4]; combined with candidate formulations, exposed to light, oxygen and elevated temperatures): underwent degradation | photostability ([4]; exposed to ultraviolet (UV) or white (CW) light): demonstrated photodegradation
